Laboratory results as given in patent US9932326B2, “Potent and selective inhibitors of hepatitis C virus” (Cocrystal Pharma, LLC, priority 2010, dated 2018).

Columns and labels:
Type in all cases: cell-based
[1] = tested on: CEM (human lymphoblastoid) cells; assay: Cellular toxicity assay, CEM cells
Description: (§1) The toxicity of the compounds was assessed in Vero, human PBM, CEM (human lymphoblastoid), MT-2, and HepG2 cells, as described previously (see Schinazi R. F., Sommadossi J.-P., Saalmann V., Cannon D. L., Xie M.-Y., Hart G. C., Smith G. A. & Hahn E. F. Antimicrob. Agents Chemother. 1990, 34, 1061-67). Cycloheximide was included as positive cytotoxic control, and untreated cells exposed to solvent were included as negative controls. The cytotoxicity IC50 was obtained from the concentration-response curve using the median effective method described previously (see Chou T.-C. & Talalay P. Adv. Enzyme Regul. 1984, 22, 27-55; Belen'kii M. S. & Schinazi R. F. Antiviral Res. 1994, 25, 1-11).

[2] = tested on: Vero cells; assay: Cellular toxicity assay, Vero cells
Description: as §1

[3] = tested on: human PBM cells; assay: Cellular toxicity assay, PBM cells
Description: as §1

| SMILES | Toxicities (μM) CEM [1] | Toxicities (μM) VERO [2] | Toxicities (μM) PBM [3] |
| --- | --- | --- | --- |
| COC(=O)N[C@H](C(=O)N1C[C@H](n2cc(-c3ccccc3)nn2)C[C@H]1c1ncc(-c2ccc(-c3ccc(-c4cnc([C@@H]5C[C@@H](n6cc(-c7ccccc7)nn6)CN5C(=O)[C@@H](NC(=O)OC)C(C)C)[nH]4)cc3)cc2)[nH]1)C(C)C | >100 µM | >100 µM | >100 µM |
| COC(=O)N[C@H](C(=O)N1C[C@@H](n2cc(COC(C)=O)nn2)C[C@H]1c1ncc(-c2ccc(-c3ccc(-c4cnc([C@@H]5C[C@H](n6cc(COC(C)=O)nn6)CN5C(=O)[C@@H](NC(=O)OC)C(C)C)[nH]4)cc3)cc2)[nH]1)C(C)C | 13.5 µM | ≥100 µM | 53 µM |
| COC(=O)N[C@H](C(=O)N1C[C@@H](n2cc(C(=O)OC)nn2)C[C@H]1c1ncc(-c2ccc(-c3ccc(-c4cnc([C@@H]5C[C@H](n6cc(C(=O)OC)nn6)CN5C(=O)[C@@H](NC(=O)OC)C(C)C)[nH]4)cc3)cc2)[nH]1)C(C)C | 13.5 µM | ≥100 µM | 53 µM |
| COC(=O)N[C@H](C(=O)N1C[C@H](n2ccnn2)C[C@H]1c1ncc(-c2ccc(-c3ccc(-c4cnc([C@@H]5C[C@@H](n6cc([Si](C)(C)C)nn6)CN5C(=O)[C@@H](NC(=O)OC)C(C)C)[nH]4)cc3)cc2)[nH]1)C(C)C | 16.2 µM | >100 µM | 3 µM |
| COC(=O)N[C@H](C(=O)N1C[C@@H](SC)C[C@H]1c1ncc(-c2ccc(-c3ccc(-c4cnc([C@@H]5C[C@H](SC)CN5C(=O)[C@@H](NC(=O)OC)C(C)C)[nH]4)cc3)cc2)[nH]1)C(C)C | 13.3 µM | 10.9 µM | 15.6 µM |
| COC(=O)N[C@H](C(=O)N1C[C@H](n2cc([Si](C)(C)C)nn2)C[C@H]1c1ncc(-c2ccc(-c3ccc(-c4cnc([C@@H]5C[C@@H](n6cc([Si](C)(C)C)nn6)CN5C(=O)[C@@H](NC(=O)OC)C(C)C)[nH]4)cc3)cc2)[nH]1)C(C)C | 25.2 µM | >100 µM | >100 µM |
